Consider 24 compounds from ChEMBL document CHEMBL5233258, “Recent developments of gallic acid derivatives and their hybrids in medicinal chemistry: A review” (Eur J Med Chem, 2020).

Assay [1] is described as follows: Antioxidant activity assessed as DPPH radical scavenging activity. The format is functional. Background: The DPPH test is a chemical assay of radical scavenging.
Assay [2] is described as follows: Antioxidant activity assessed as ABTS radical scavenging activity. The format is functional.
Assay [3] concerns Bacillus subtilis. Kind of assay: Antibacterial activity against Bacillus subtilis ATCC 6633 by Mueller-Hinton broth method. The format is functional.
Assay [4] has as its system Bacillus subtilis. Kind of assay: Bactericidal activity against Bacillus subtilis ATCC 6633 by Mueller-Hinton broth method. The format is functional.
The nature of assay [5]: Antioxidant activity assessed as DPPH radical scavenging activity measured after 30 mins. The format is functional.
The test system of assay [6] is MCF7. Kind of assay: Anticancer activity against human MCF7 cells assessed as inhibition of cell growth incubated for 24 hrs by MTT assay. The format is functional, cell-based. Conditions: MCF7, 24 h.
Assay [7] concerns Escherichia coli. Kind of assay: Antibacterial activity against Escherichia coli assessed as zone of inhibition incubated for 24 hrs by agar diffusion method. The format is functional. For orientation: In agar diffusion tests the substance spreads into inoculated agar from a disc or well.
Assay [8] concerns Pseudomonas aeruginosa. The assay is described as follows: Antibacterial activity against Pseudomonas aeruginosa assessed as zone of inhibition incubated for 24 hrs by agar diffusion method. The format is functional.
A short description of assay [9]: Antioxidant activity assessed as DPPH radical scavenging activity measured after 30 mins by spectrophotometric analysis. The format is functional.

Values after ≈ are worked out from the molar mass of the structure shown.

Consider `CSc1nnc(C(=O)c2cc(O)c(O)c(O)c2)o1`, for which the 50% inhibitory concentration (IC50) worked out at 14.6 µM in assay [1] and 24.4 µM in assay [2].

For `CCCCCCCCCC[N+]1(C)CCCCC1`, in assay [3], the MIC was found to be 1000 µM. Besides, in assay [4], the MBC worked out at 1000 µM.

In assay [3], `CCCCCCCCCC[N+](C)(C)CCO` had an MIC of 1200 µM. In assay [4], the MBC is 1200 µM. Take `C/C(=N/NC(=O)c1cc(O)c(O)c(O)c1)c1ccccn1`: in assay [5], the half-inhibitory concentration (IC50) stood at 1.14 µg/mL (≈ 3.97 µM).

Consider `COc1cc(/C=C\c2cc3c(cc2OC(C)=O)CC[C@@H]2[C@@H]3CC[C@]3(C)[C@@H](OC(C)=O)CC[C@@H]23)cc(OC)c1OC`, for which the IC50 in assay [6] was 7.5 µM. As to `Oc1cc(-c2nnc(Cc3nnc(-c4cc(O)c(O)c(O)c4)o3)o2)cc(O)c1O`, the IC50 in [1] came out at 14.8 µM; in assay [2], 24.7 µM.

`COC1=CC(=O)C[C@@H](C)[C@]12Oc1c(Cl)c(OC)cc(OC)c1C2=O` [GRISEOFULVIN]: the “inhibition zone (IZ)” value in assay [7] worked out at 22 mm. Turning to `COc1cc(C(=O)N/N=C/c2cc3ccccc3[nH]2)cc(OC)c1OC`, the “inhibition zone (IZ)” value in [7] and in [8] was 17 mm in each case.

Consider `O=C(O)c1cc(OCCNC(=O)c2cc(OCCNC(=O)c3cc(OCNC(=O)c4cc(O)c(O)c(O)c4)cc(OCNC(=O)c4cc(O)c(O)c(O)c4)c3)cc(OCCNC(=O)c3cc(OCNC(=O)c4cc(O)c(O)c(O)c4)cc(OCNC(=O)c4cc(O)c(O)c(O)c4)c3)c2)cc(OCCNC(=O)c2ccc(OCCNC(=O)c3cc(OCNC(=O)c4cc(O)c(O)c(O)c4)cc(OCNC(=O)c4cc(O)c(O)c(O)c4)c3)c(OCCNC(=O)c3cc(OCNC(=O)c4cc(O)c(O)c(O)c4)cc(OCNC(=O)c4cc(O)c(O)c(O)c4)c3)c2)c1`, for which, in [1], the ED50 is 4.7 µM.

For the compound `Cc1c(C)c2c(c(C)c1O)CC[C@@](C)(CCC[C@H](C)CCC[C@H](C)CCCC(C)C)O2` [ALPHA-TOCOPHEROL], the IC50 in assay [9] worked out at 911 µM. On to `Oc1cc(-c2nnc(CC(O)(Cc3nnc(-c4cc(O)c(O)c(O)c4)o3)c3nnco3)o2)cc(O)c1O`, for which the results for the IC50 in [1] and in assay [2] were 16 µM and 125 µM, respectively. Turning to `CC/C(=C(\c1ccccc1)c1ccc(OCCN(C)C)cc1)c1ccccc1` [TAMOXIFEN], the IC50 in [6] came to 9 µM.

Turning to `C/C(=N/NC(=O)c1cc(O)c(O)c(O)c1)c1cc(Cl)ccc1O`, the IC50 in assay [5] came to 1.14 µg/mL (≈ 3.39 µM).

Take `CC1(C)S[C@@H]2[C@H](NC(=O)[C@H](N)c3ccccc3)C(=O)N2[C@H]1C(=O)O` [AMPICILLIN]: the “inhibition zone (IZ)” value in assay [7] and in assay [8] was 15 mm each time. As to `O=C1O[C@H]([C@@H](O)CO)C(O)=C1O` [ASCORBIC ACID], the IC50 is 18 µM in assay [1], 2.26 µg/mL (≈ 12.8 µM) in [5], 30.1 µM in [2] and 981 µM in assay [9]. Consider `Cc1c(C)c2c(c(C)c1O)CCC(C)(C(=O)O)O2` (stereo not drawn) [TROLOX], for which the IC50 in assay [1] came to 30.6 µM. Consider `COc1cc(C(=O)N/N=C/c2ccnc3ccccc23)cc(OC)c1OC`, for which the “inhibition zone (IZ)” value in assay [7] and in assay [8] was 17 mm throughout. Regarding `COc1cc(C(=O)N/N=C/c2ccc(-c3ccccn3)cc2)cc(OC)c1OC`, the “inhibition zone (IZ)” value in [7] and in assay [8] was 17 mm in each case. Take `COc1cc(C(=O)NN=Cc2nc(-c3ccccc3)c[nH]2)cc(OC)c1OC`: the “inhibition zone (IZ)” value in [7] and in assay [8] was 17 mm in each case.

`COc1cc(C(=O)N/N=C/c2c(CO)cnc(C)c2O)cc(OC)c1OC`: the “inhibition zone (IZ)” value in assay [7] and in assay [8] was 17 mm each time. Take `C/C(=N/NC(=O)c1cc(O)c(O)c(O)c1)c1cc(Br)ccc1O`: the half-maximal inhibitory concentration (IC50) in [5] was 1.14 µg/mL (≈ 2.99 µM). Turning to `COc1cc([C@@H]2c3cc4c(cc3[C@H](O)[C@H]3COC(=O)[C@H]23)OCO4)cc(OC)c1OC` [PODOFILOX], the IC50 in [6] is 65 µM.

In the case of `COc1ccc(/C=C\c2cc(OC)c(OC)c(OC)c2)cc1O` [COMBRETASTATIN A4], the IC50 in [6] was determined as 0.01 µM. As for `COc1ccc(O)c(/C(C)=N\NC(=O)c2cc(O)c(O)c(O)c2)c1`, the IC50 in assay [5] stood at 1.14 µg/mL (≈ 3.43 µM).

As usually defined, the IC50 is the concentration needed to halve the response being measured. In general, MIC refers to the lowest concentration that inhibits growth of the organism. Lower therefore signals inhibition by little substance. The MBC is the lowest tested concentration that kills the bacteria rather than only halting them. Higher therefore signals weaker bactericidal potency.
